Source: patent US9708334B2, “Substituted 2,4,5,6-tetrahydropyrrolo[3,4-c]pyrazole and 4,5,6,7-tetrahydro-2H-pyrazolo[4,3-c]pyridine compounds as GlyT1 inhibitors” (DART NEUROSCIENCE (CAYMAN) LTD., priority 2014, dated 2017)

Molecular target: T1, GlyT1 (Homo sapiens, UniProt P48067)
T1 construct: expressed in transfected cells
T1 sequence (P48067 1-706): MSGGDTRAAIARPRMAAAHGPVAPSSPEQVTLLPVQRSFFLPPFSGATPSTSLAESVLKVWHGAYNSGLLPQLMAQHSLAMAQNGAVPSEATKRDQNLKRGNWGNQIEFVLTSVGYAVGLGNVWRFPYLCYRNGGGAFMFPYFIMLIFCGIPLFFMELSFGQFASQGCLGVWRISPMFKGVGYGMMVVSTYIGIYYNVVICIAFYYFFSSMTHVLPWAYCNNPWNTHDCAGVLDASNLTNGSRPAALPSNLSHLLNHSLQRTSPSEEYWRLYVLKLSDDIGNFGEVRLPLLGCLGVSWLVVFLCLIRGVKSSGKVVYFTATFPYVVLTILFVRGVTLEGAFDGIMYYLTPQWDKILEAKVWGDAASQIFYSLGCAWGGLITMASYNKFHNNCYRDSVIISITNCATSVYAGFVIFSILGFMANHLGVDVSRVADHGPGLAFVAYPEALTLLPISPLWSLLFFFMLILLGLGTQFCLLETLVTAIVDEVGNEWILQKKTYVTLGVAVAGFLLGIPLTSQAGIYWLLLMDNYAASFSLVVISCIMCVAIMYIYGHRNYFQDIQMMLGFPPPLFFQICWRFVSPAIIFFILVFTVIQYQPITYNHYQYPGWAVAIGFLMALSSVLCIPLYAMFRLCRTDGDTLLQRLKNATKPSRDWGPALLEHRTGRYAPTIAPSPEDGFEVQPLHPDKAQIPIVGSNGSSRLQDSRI
Assay: Glycine Transporter 1 (GlyT1) uptake assay, scintillation proximity assay of [14C]-glycine uptake
Assay type: cell-based
Details: SPA, four parameter logistic fit, read-out: GlyT1 (pIC50) (converted)
Outline: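 [14C]-glycine uptake read by scintillation proximity on a plate counter. IC50 from four-parameter logistic fit of dose-response data.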

SMILES | IC50
CCc1cc(-n2cc3c(n2)CN(C(=O)c2cc(S(=O)(=O)CC)ccc2O[C@@H](C)C(F)(F)F)C3)ccn1 [Example 134, 4-{5-[5-(Ethanesulfonyl)-2-{[(2S)-1 1 1-trifluoropropan-2-yl]oxy}benzoyl]-2H 4H 5H 6H-pyrrolo[3,4-c]pyrazol-2-yl}-2-ethylpyridine] | < 100 nM
CCS(=O)(=O)c1ccc(N2CCC(F)(F)CC2)c(C(=O)N2Cc3cn(-c4ccc(F)cn4)nc3C2)c1 [Example 135, 2-{5-[2-(4 4-Difluoropiperidin-1-yl)-5-(ethanesulfonyl)benzoyl]-2H 4H 5H 6H-pyrrolo[3,4-c]pyrazol-2-yl}-5-fluoropyridine] | < 100 nM
Cc1ccc(F)c(-n2cc3c(n2)CN(C(=O)c2cc(S(C)(=O)=O)ccc2OCC2CC2)C3)c1 [Example 136, 5-[2-(Cyclopropylmethoxy)-5-methanesulfonylbenzoyl]-2-(2-fluoro-5-methylphenyl)-2H 4H 5H 6H-pyrrolo[3,4-c]pyrazole] | < 100 nM
CS(=O)(=O)c1ccc(OCC2CC2)c(C(=O)N2Cc3cn(-c4cc(F)ccc4F)nc3C2)c1 [Example 137, 5-[2-(Cyclopropylmethoxy)-5-methanesulfonylbenzoyl]-2-(2 5-difluorophenyl)-2H 4H 5H 6H-pyrrolo[3,4-c]pyrazole] | < 100 nM
CS(=O)(=O)c1ccc(OCC2CC2)c(C(=O)N2Cc3cn(-c4cccc(C(F)(F)F)c4F)nc3C2)c1 [Example 138, 5-[2-(Cyclopropylmethoxy)-5-methanesulfonylbenzoyl]-2-[2-fluoro-3-(trifluoromethyl)phenyl]-2H 4H 5H 6H-pyrrolo[3,4-c]pyrazole] | < 100 nM
Cc1cccc(-n2cc3c(n2)CN(C(=O)c2cc(S(C)(=O)=O)ccc2OCC2CC2)C3)c1F [Example 139, 5-[2-(Cyclopropylmethoxy)-5-methanesulfonylbenzoyl]-2-(2-fluoro-3-methylphenyl)-2H 4H 5H 6H-pyrrolo[3,4-c]pyrazole] | < 100 nM
Cc1cccc(-n2cc3c(n2)CN(C(=O)c2cc(S(C)(=O)=O)ccc2OCC2CC2)C3)c1 [Example 140, 5-[2-(Cyclopropylmethoxy)-5-methanesulfonylbenzoyl]-2-(3-methylphenyl)-2H 4H 5H 6H-pyrrolo[3,4-c]pyrazole] | < 100 nM
CS(=O)(=O)c1ccc(-c2cccc(F)c2)c(C(=O)N2Cc3cn(-c4cccnc4)nc3C2)c1 [Example 141, 3-{5-[2-(3-Fluorophenyl)-5-methanesulfonylbenzoyl]-2H 4H 5H 6H-pyrrolo[3,4-c]pyrazol-2-yl}pyridine] | < 100 nM
CS(=O)(=O)c1ccc(-c2cccc(F)c2)c(C(=O)N2Cc3cn(-c4ccncc4)nc3C2)c1 [Example 142, 4-{5-[2-(3-Fluorophenyl)-5-methanesulfonylbenzoyl]-2H 4H 5H 6H-pyrrolo[3,4-c]pyrazol-2-yl}pyridine] | < 100 nM
CCc1cc(-n2cc3c(n2)CN(C(=O)c2cc(S(C)(=O)=O)ccc2-c2cccc(F)c2)C3)ccn1 [Example 143, 2-Ethyl-4-{5-[2-(3-fluorophenyl)-5-methanesulfonylbenzoyl]-2H 4H 5H 6H-pyrrolo[3,4-c]pyrazol-2-yl}pyridine] | < 100 nM
C[C@H](Oc1ccc(S(=O)(=O)CC2CC2)cc1C(=O)N1Cc2cn(-c3ccccc3)nc2C1)C(F)(F)F [Example 144, 5-(5-Cyclopropylmethanesulfonyl-2-{[(2S)-1 1 1-trifluoropropan-2-yl]oxy}benzoyl)-2-phenyl-2H 4H 5H 6H-pyrrolo[3,4-c]pyrazole] | > 10000 nM
Cc1cccc(-n2cc3c(n2)CN(C(=O)c2cc(S(=O)(=O)CC4CC4)ccc2O[C@@H](C)C(F)(F)F)C3)c1 [Example 145, 5-(5-Cyclopropylmethanesulfonyl-2-{[(2S)-1 1 1-trifluoropropan-2-yl]oxy}benzoyl)-2-(3-methylphenyl)-2H 4H 5H 6H-pyrrolo[3,4-c]pyrazole] | 1000 to 10000 nM
